Laboratory results as given in patent publication US12023311B2, “Delayed release pharmaceutical formulations comprising valproic acid, and uses thereof” (Cereno Scientific AB, priority 2016, dated 2024).
Where two headings read alike, the source gives them in different places.

Tests used:
PAI-1 [1] = test: Proof-of-concept study in healthy subjects: plasma PAI-1 before and after valproic acid; format: in vivo, human; settings: p<0.05
Procedure: (§1) The effects of VPA on PAI-1 were analysed in two different proof-of-concept studies in healthy subjects as well as in patients with manifest atherosclerotic disease. […] PAI-1 plasma levels were measured in the morning at the first day of the study as well as at the end of the treatment period with VPA (see example 2 for details on the PAI-1 analysis).
In the first study, 10 healthy non-smoking white male subjects (with mean BMI of approximately 26), aged 50-70 years were included and treated with valproic acid 500 mg (Ergenyl Retard. Sanofi) twice daily during 14 days.

PAI-1 [2] = test: Proof-of-concept study in patients with a history of myocardial infarction: plasma PAI-1 before and after valproic acid; format: in vivo, human; settings: midmorning, p=0.01; for reduction in circulating plasma PAI-1 levels: 16 male patients aged 50-80 with history of myocardial infarction, valproic acid 500 mg (Ergenyl Retard, Sanofi) twice daily 28 days on top of ordinary prescription
Procedure: as §1
In the second study, 16 non-smoking white male patients, aged 50-80 years with a history of a myocardial infarction were included. On top of their ordinary prescription (beta-blocker, ACE-inhibitor, statin, aspirin) they were treated with valproic acid 500 mg (Ergenyl Retard, Sanofi), twice daily during 28 days.

PAI-1 [3] = test: Intermediate endpoint study in patients with TIA/minor stroke: plasma PAI-1 levels; format: in vivo, human; settings: 20 patients with TIA/minor stroke; 400 mg valproic acid enteric-coated tablet with delayed absorption, once daily at 11 pm for 2 weeks
Procedure: (§2) An intermediate endpoint proof-of-concept study is performed in patients with TIA/minor stroke investigated before and after treatment with Valproic acid. Valproic acid is administrated as an enteric-coated tablet with delayed absorption.
(§3) The study comprises 20 patients with TIA/minor stroke. Patients are investigated before and after oral treatment with 400 mg valproic acid once time daily at 11 pm for 2 weeks. Plasma PAI-1 levels and plasma concentrations of valproic acid is followed daily during the study period at the following time-points: 3 am, 6 am, 10 am, 16 pm, 22 pm PAI-1 levels are measured by commercially available ELISA-kits (Coaliza PA-1, Chromogenix AB) and the plasma concentration of valproic acid an metabolites thereof is analyzed according to clinical routine at the Sahlgrenska University laboratory, Gothenburg, Sweden.

[4] = Intermediate endpoint study in patients with TIA/minor stroke: plasma concentration of valproic acid; format: in vivo, human; settings: 400 mg enteric-coated tablet with delayed absorption, oral, once daily at 11 pm, clock time
Procedure: as §2, §3

PAI-1 [5] = settings: cultured endothelial cells; no decrease of PAI-1 mRNA levels after VPA treatment; slight but significant; cited from earlier work
PAI-1 [6] = settings: in vivo model in pig (Svennerholm et al. 2014); cited from earlier work
PAI-1 [7] = settings: in vivo model in mouse (Larsson, Alwis et al. 2016); cited from earlier work

SMILES: CCCC(CCC)C(=O)O [valproic acid, 2-propylpentanoic acid]
- reduction in circulating plasma PAI-1 levels (PAI-1 [1]; 10 healthy non-smoking male subjects aged 50-70, valproic acid 500 mg (Ergenyl Retard, Sanofi) twice daily 14 days, mid-morning vs before treatment): more than 50%
- circulating plasma PAI-1 level after treatment (PAI-1 [1]; healthy male subjects, 500 mg (Ergenyl Retard) twice daily 14 days, mid-morning, from 22.2 ng/ml before treatment): 10.8 ng/mL
- reduction in circulating plasma PAI-1 levels (PAI-1 [2]): 45%
- reduction in circulating plasma PAI-1 levels (PAI-1 [2]; listed as VPA): about 45%
- circulating plasma PAI-1 level after treatment (PAI-1 [2]; patients with history of myocardial infarction, 500 mg (Ergenyl Retard) twice daily 28 days, from 19.6 ng/ml before treatment): 11 ng/mL
- plasma PAI-1 levels lowered after the treatment (PAI-1 [3]): approximately 30%
- time of peak plasma concentration of valproic acid [4]: peak between 3 am and 6 am
- increase in PAI-1 production (PAI-1 [5]): 30%
- effects on plasma PAI-1 (PAI-1 [6]): did not detect any effects
- effects on plasma PAI-1 (PAI-1 [7]): did not detect any effects
